Assay results taken from paper PMC12142043, “Cell-based high-content approach for SARS-CoV-2 neutralization identifies unique monoclonal antibodies and PI3K pathway inhibitors” (Frontiers in Cell and Developmental Biology, 2025).

Test system: SARS-CoV-2 (USA-WA1/2020) in Calu-3 cells
Format: cell-based
Details: Calu-3, 48 h; for dsRNA signal, AU High: high dose (10 µM); for dsRNA signal, AU Low: low dose (100 nM)

| Structure (SMILES) | dsRNA signal, AU High [AU] | dsRNA signal, AU Low [AU] |
| --- | --- | --- |
| O=C(Nc1cccc(Nc2nccc(Nc3cccc(C(F)(F)F)c3)n2)c1)C1CC1 [Aurora Kinase Inhibitor III] | 2378.0 | 11511.4 |
| CNC(=O)c1ccccc1Sc1ccc2c(/C=C/c3ccccn3)n[nH]c2c1 [Axitinib (AG 013736)] | 42600.6 | 65444.2 |
| CCN1CCN(c2ccc(Nc3cc(N(C)C(=O)Nc4c(Cl)c(OC)cc(OC)c4Cl)ncn3)cc2)CC1 [BGJ398] | 24356.1 | 22673.4 |
| CC[C@@H]1C(=O)N(C)c2cnc(Nc3ccc(C(=O)NC4CCN(C)CC4)cc3OC)nc2N1C1CCCC1 [BI 2536] | 34739.4 | 58236.8 |
| Cc1ccc(-n2nc(C(C)(C)C)cc2NC(=O)Nc2ccc(OCCN3CCOCC3)c3ccccc23)cc1 [BIRB 796 (Doramapimod)] | 8315.3 | 13140.6 |
| CN(C)Cc1cccc(N/C(=C2\C(=O)Nc3cc(C(N)=O)ccc32)c2ccccc2)c1 [BIX 02188] | 40230.6 | 23376.7 |
| NC(=O)c1ccc2nc(-c3ccc(Oc4ccc(Cl)cc4)cc3)[nH]c2c1 [BML-277] | 33021.5 | 13488.9 |
| Cc1ccc2nc(NCCN)c3ncc(C)n3c2c1.Cl [BMS345541 hydrochloride] | 0.0 | 5872.9 |
| CCCNC(=O)c1cn2ncnc(Nc3cc(C(=O)NC4CC4)ccc3C)c2c1C.Cl [BMS-582949 hydrochloride] | 7441.1 | 64364.9 |
| CCOc1ccn(-c2ccc(F)cc2)c(=O)c1C(=O)Nc1ccc(Oc2ccnc(N)c2Cl)c(F)c1 [BMS-777607] | 39539.6 | 18689.6 |
| CCn1c(C(=O)N(C2CC2)C2CC2)cc2c3c(ncn3C)c(Nc3cc(C)n(C)n3)nc21 [BMS-911543] | 18362.9 | 16684.7 |
| C=CC(=O)Nc1cc(-n2c(=O)ccc3cnc4ccc(-c5ccc(NS(C)(=O)=O)cc5)cc4c32)ccc1C [BMX-IN-1] | 37737.5 | 26747.2 |
| Cc1ccc(NC(=O)c2ccc(CN3CC[C@H](N(C)C)C3)c(C(F)(F)F)c2)cc1Nc1nccc(-c2cncnc2)n1 [Bafetinib (INNO-406)] | 1113.6 | 32473.2 |
| CCN(CCO)CCCOc1ccc2c(Nc3cc(CC(=O)Nc4cccc(F)c4)[nH]n3)ncnc2c1 [Barasertib (AZD1152-HQPA)] | 48647.4 | 41038.0 |
| CCS(=O)(=O)N1CC(CC#N)(n2cc(-c3ncnc4[nH]ccc34)cn2)C1 [Baricitinib (LY3009104, INCB028050)] | 27614.1 | 24279.2 |
| CCS(=O)(=O)N1CC(CC#N)(n2cc(-c3ncnc4[nH]ccc34)cn2)C1 [Baricitinib phosphate] | 2518.9 | 32442.1 |
| CC(C)(C)c1ccc(S(=O)(=O)/C=C/C#N)cc1 [Bay 11-7085] | 63723.6 | 21705.2 |
| O=C(O)CCC(=O)Nc1ccc(Br)cn1 [Bikinin] | 39833.6 | 44813.6 |
| COc1ccc(-c2coc3cc(O)cc(O)c3c2=O)cc1 [Biochanin A] | 14982.3 | 21751.5 |
| COc1cc(Nc2c(C#N)cnc3cc(OCCCN4CCN(C)CC4)c(OC)cc23)c(Cl)cc1Cl [Bosutinib (SKI-606)] | 38090.7 | 42027.4 |

| Structure (SMILES) | dsRNA signal, AU High [AU] | dsRNA signal, AU Low [AU] |
| --- | --- | --- |
| CCOc1ccc(Nc2ccc(/C(=C3C=C/C(=[N+](/CC)Cc4cccc(S(=O)(=O)[O-])c4)C=C/3C)c3ccc(N(CC)Cc4cccc(S(=O)(=O)O)c4)cc3C)cc2)cc1 [Brilliant Blue G] | 11949.6 | 31753.4 |
| Cc1cc2c(F)c(Oc3ncnn4cc(OC[C@@H](C)O)c(C)c34)ccc2[nH]1 [Brivanib (BMS-540215)] | 51042.4 | 684.7 |
| O=C(/C=C/c1ccc(O)c(O)c1)c1ccc(O)cc1O [Butein] | 38311.3 | 14009.4 |
| CCN1C(=O)CNc2ncc(-c3ccc(-c4nc[nH]n4)nc3C)nc21 [CC-115] | 5666.1 | 44138.8 |
| CO[C@H]1CC[C@H](N2C(=O)CNc3ncc(-c4ccc(C(C)(C)O)nc4)nc32)CC1 [CC-223] | 6587.4 | 41988.9 |
| NC1(Cc2ccc(Cl)cc2)CCN(c2ncnc3[nH]ccc23)CC1 [CCT128930] | 1507.6 | 9152.4 |
| Cc1cc(CN2CCN(c3c(Br)cnc4nc(-c5ccc(N6CCN(C)CC6)cc5)[nH]c34)CC2)no1 [CCT137690] | 0.0 | 46657.6 |
| CN1CCN(c2cccc(Nc3nc4c(-c5ccc(S(C)(=O)=O)cc5)cccn4n3)c2)CC1 [CEP-33779] | 12244.2 | 3458.4 |
| Cc1c(NC(=O)c2ccc(C(C)(C)C)cc2)cccc1-c1cn(C)c(=O)c(Nc2ccc(C(=O)N3CCOCC3)cc2)n1 [CGI-1746] | 34116.6 | 18368.1 |
| Nc1ncnc2n[nH]c(Nc3ccc(F)cc3)c12 [CGP 57380] | 1947.6 | 33084.2 |
| O=c1[nH]c2ccc(Cl)cc2c(N[C@@H]2CN3CCC2CC3)c1-c1nc2ccccc2[nH]1 [CHIR-124] | 9794.1 | 2244.6 |
| Cc1cnc(-c2cnc(NCCNc3ccc(C#N)cn3)nc2-c2ccc(Cl)cc2Cl)[nH]1 [CHIR-99021 (CT99021)] | 62333.9 | 10204.7 |
| O=C1NCCCc2c1oc1ccc(O)cc21 [CID 755673] | 9033.3 | 7582.1 |
| O=C(Nc1ccc(CN2CCOCC2)cc1)c1ccc(-c2cccc(Cl)c2)o1 [CID 2011756] | 3490.5 | 12424.4 |
| C=CC(=O)Nc1cccc(Nc2nc(Nc3ccc(N4CCN(C(C)=O)CC4)cc3OC)ncc2C(F)(F)F)c1 [CO-1686 (AVL-301)] | 16434.5 | 26200.1 |
| Cn1cc(C2=C(c3cccc(N)c3)C(=O)NC2=O)c2ccccc21 [CP21R7] | 5189.9 | 2975.5 |
| COc1cc2ncnc(-n3nc(-c4ccccn4)nc3N)c2cc1OC [CP-466722] | 23326.1 | 24439.1 |
| COCCOc1ccc2c(c1)ncn2-c1ccc2cccc(N3CCC(N)CC3)c2n1 [CP-673451] | 14720.6 | 4566.7 |
| COCC(=O)NC/C=C/c1ccc2ncnc(Nc3ccc(Oc4ccc(C)nc4)c(C)c3)c2c1 [CP-724714] | 1118.3 | 29983.8 |
| O=C(O)CCCCC(CCSCc1ccccc1)SCc1ccccc1 (centres unmarked) [CPI-613] | 36.8 | 25399.4 |
